Measured values: patent US20150080292A1 (priority 2013, published 2015)
≈ marks a conversion by molar mass, not a printed value. Where a SMILES comes first, the peptide text is derived from it. Bridges are numbered along the chain shown (N, C = ends). The star is where a group is joined. Pentadecanoyl = CCCCCCCCCCCCCCC(=O)*; Tridecanoyl = CCCCCCCCCCCCC(=O)*; Myristoyl = CCCCCCCCCCCCCC(=O)*

What was measured:
[1] = tested on: Fusarium graminearum; conditions: LB plates, 28° C.
[2] = tested on: Fusarium oxysporum; experiment: Anti-fungus plate experiment (growth diameter on LB medium with drug); type: cell-based; conditions: LB plates, 28° C.
Procedure: (§1) The anti-fungi experiment, with 6 treatments of different drug concentration and three replicates each treatment and sterile water as blank check, was conducted by mixing Locillomycin-A, Locillomycin-B and Locillomycin-C separately into different plates containing LB medium and, then, inoculating pathogenic fungi in the center of the plates, followed by incubation at 28° C. to check the effectiveness of antifungal function. The criteria of the effectiveness were defined as the size of orthogonal cross diameter of the pathogen growth.

[3] = tested on: Rhizoctonia solani; experiment: as above; type: cell-based; conditions: LB plates, 28° C.
Procedure: as §1

[4] = solvents in which the compound dissolves

| Compound | IC50 [1] [µg/mL] | IC90 [1] [µg/mL] | IC50 [2] [µg/mL] | IC90 [2] [µg/mL] | IC50 [3] [µg/mL] | IC90 [3] [µg/mL] | Solubility [4] |
| --- | --- | --- | --- | --- | --- | --- | --- |
| CCCCCCCCCCCCC(=O)NC1C(=O)NC(CCC(N)=O)C(=O)NC(CC(=O)O)C(=O)NCC(=O)NC(CC(N)=O)C(=O)NC(CC(=O)O)C(=O)NCC(=O)NC(Cc2ccc(O)cc2)C(=O)NC(C(C)C)C(=O)OC1C (stereo not drawn) [Locillomycin-A] (Tridecanoyl-TQDGNDGYV; ester 1-C; configuration not given here) | 25.4 (≈ 22.2 µM) | >100 | 12.5 (≈ 10.9 µM) | 56.3 (≈ 49.1 µM) | 15.5 (≈ 13.5 µM) | 45.9 (≈ 40 µM) | Methanol, Dimethyl |
| CCCCCCCCCCCCCC(=O)NC1C(=O)NC(CCC(N)=O)C(=O)NC(CC(=O)O)C(=O)NCC(=O)NC(CC(N)=O)C(=O)NC(CC(=O)O)C(=O)NCC(=O)NC(Cc2ccc(O)cc2)C(=O)NC(C(C)C)C(=O)OC1C (stereo not drawn) [Locillomycin-B] (Myristoyl-TQDGNDGYV; ester 1-C; configuration not given here) | 22.6 (≈ 19.5 µM) | >100 | 11.6 (≈ 10 µM) | 48.9 (≈ 42.1 µM) | 13.8 (≈ 11.9 µM) | 40.6 (≈ 35 µM) | Methanol, Dimethyl |
| CCCCCCCCCCCCCCC(=O)NC1C(=O)NC(CCC(N)=O)C(=O)NC(CC(=O)O)C(=O)NCC(=O)NC(CC(N)=O)C(=O)NC(CC(=O)O)C(=O)NCC(=O)NC(Cc2ccc(O)cc2)C(=O)NC(C(C)C)C(=O)OC1C (stereo not drawn) [Locillomycin-C] (Pentadecanoyl-TQDGNDGYV; ester 1-C; configuration not given here) | 21.7 (≈ 18.5 µM) | >100 | 10.3 (≈ 8.77 µM) | 46.8 (≈ 39.9 µM) | 12.4 (≈ 10.6 µM) | 38.6 (≈ 32.9 µM) | Methanol, Dimethyl |
